Reference: US20160318897A1, “AZOLE COMPOUNDS CARRYING AN IMINE-DERIVED SUBSTITUENT” (BASF SE, priority 2013, published 2016)

Key:
Format in all cases: in vivo
Anthonomus grandis = assay: Boll weevil (Anthonomus grandis) microtiter plate insect diet test; details: 120 h, egg and larval mortality after 5 days, read-out: mortality in comparison with untreated controls
Experimental: B.1 Boll Weevil (Anthonomus grandis)
For evaluating control of boll weevil (Anthonomus grandis) the test unit consisted of 96-well-microtiter plates containing an insect diet and 5-10 A. grandis eggs.
(§1) The compounds were formulated using a solution containing 75% v/v water and 25% v/v DMSO. Different concentrations of formulated compounds were sprayed onto the insect diet at 5 μl, using a custom built micro atomizer, at two replications.
After application, microtiter plates were incubated at about 25±1° C. and about 75±5% relative humidity for 5 days. Egg and larval mortality was then visually assessed.

Myzus persicae = assay: Green peach aphid (Myzus persicae) systemic test, artificial diet under membrane; details: 72 h, adult aphids, after 3 days, read-out: mortality in comparison with untreated controls
From the text: B.6 Green Peach Aphid (Myzus persicae)
For evaluating control of green peach aphid (Myzus persicae) through systemic means the test unit consisted of 96-well-microtiter plates containing liquid artificial diet under an artificial membrane.
The compounds were formulated using a solution containing 75% v/v water and 25% v/v DMSO. Different concentrations of formulated compounds were pipetted into the aphid diet, using a custom built pipetter, at two replications.
After application, 5-8 adult aphids were placed on the artificial membrane inside the microtiter plate wells. The aphids were then allowed to suck on the treated aphid diet and incubated at about 23±1° C. and about 50±5% relative humidity for 3 days. Aphid mortality and fecundity was then visually assessed.

Heliothis virescens = assay: Tobacco budworm (Heliothis virescens) microtiter plate insect diet test; details: 120 h, egg and larval mortality after 5 days, read-out: mortality in comparison with untreated controls
Experimental: B.5 Tobacco Budworm (Heliothis virescens)
For evaluating control of tobacco budworm (Heliothis virescens) the test unit consisted of 96-well-microtiter plates containing an insect diet and 15-25 H. virescens eggs.
The compounds were formulated using a solution containing 75% v/v water and 25% v/v DMSO. Different concentrations of formulated compounds were sprayed onto the insect diet at 10 μl, using a custom built micro atomizer, at two replications.
(§2) After application, microtiter plates were incubated at about 28±1° C. and about 80±5% relative humidity for 5 days. Egg and larval mortality was then visually assessed.

Dichromothrips corbetti = assay: Orchid thrips (Dichromothrips corbetti) floral-immersion test; details: adult thrips, 72 hours after treatment, read-out: mortality in comparison with untreated controls
Experimental: B.2 Orchid Thrips (Dichromothrips Corbetti)
Dichromothrips corbetti adults used for bioassay were obtained from a colony maintained continuously under laboratory conditions. For testing purposes, the test compound is diluted in a 1:1 mixture of acetone:water (vol:vol), plus Kinetic HV at a rate of 0.01% v/v.
Thrips potency of each compound was evaluated by using a floral-immersion technique. All petals of individual, intact orchid flowers were dipped into treatment solution and allowed to dry in Petri dishes. Treated petals were placed into individual resealable plastic along with about 20 adult thrips. All test arenas were held under continuous light and a temperature of about 28° C. for duration of the assay. After 3 days, the numbers of live thrips were counted on each petal. The percent mortality was recorded 72 hours after treatment.

Plutella xylostella = assay: Diamond back moth (Plutella xylostella) cabbage leaf dip test; details: foliar, 3rd instar larvae, 72 hours after treatment, read-out: mortality in comparison with untreated controls
Experimental: B.8 Diamond Back Moth (Plutella xylostella)
The active compound is dissolved at the desired concentration in a mixture of 1:1 (vol:vol) distilled water:aceteone. Surfactant (Kinetic HV) is added at a rate of 0.01% (vol/vol). The test solution is prepared at the day of use.
Leaves of cabbage were dipped in test solution and air-dried. Treated leaves were placed in petri dishes lined with moist filter paper and inoculated with ten 3rd instar larvae. Mortality was recorded 72 hours after treatment. Feeding damages were also recorded using a scale of 0-100%.

Nephotettix virescens = assay: Rice green leafhopper (Nephotettix virescens) spray test on rice seedlings; details: adults, after 72 hours, read-out: mortality in comparison with untreated controls
Experimental: B.7 Rice Green Leafhopper (Nephotettix virescens)
Rice seedlings were cleaned and washed 24 hours before spraying. The active compounds were formulated in 1:1 acetone:water (vol:vol), and 0.01% vol/vol surfactant (Kinetic HV) was added. Potted rice seedlings were sprayed with 5-6 ml test solution, air dried, covered with Mylar cages cages and inoculated with 10 adults. Treated rice plants were kept at about 28-29° C. and relative humidity of about 50-60%. Percent mortality was recorded after 72 hours.

Aphis craccivora = assay: Cowpea aphid (Aphis craccivora) spray test on potted cowpea plants; details: after 72 hours, read-out: mortality in comparison with untreated controls
Experimental: B.3 Cowpea Aphid (Aphis Craccivora)
The active compound is dissolved at the desired concentration in a mixture of 1:1 (vol:vol) distilled water:acetone. Surfactant (Kinetic HV) is added at a rate of 0.01% (vol/vol). The test solution is prepared at the day of use.
Potted cowpea plants were colonized with approximately 50-100 aphids of various stages by manually transferring a leaf tissue cut from infested plant 24 hours before application. Plants were sprayed after the pest population has been recorded. Treated plants are maintained on light carts at about 28° C. Percent mortality was assessed after 72 hours.

Spodoptera eridania = assay: Southern armyworm (Spodoptera eridania), 2nd instar larvae, foliar spray on lima bean; details: 96 h, 4 days after treatment, read-out: mortality in comparison with untreated controls
Experimental: B.9 Southern Armyworm (Spodoptera eridania), 2nd Instar Larvae
The active compounds were formulated by a Tecan liquid handler in 100% cyclohexanone as a 10,000 ppm solution supplied in tubes. The 10,000 ppm solution was serially diluted in 100% cyclohexanone to make interim solutions. These served as stock solutions for which final dilutions were made by the Tecan in 50% acetone:50% water (v/v) into 5 or 10 ml glass vials. A nonionic surfactant (Kinetic®) was included in the solution at a volume of 0.01% (v/v). The vials were then inserted into an automated electrostatic sprayer equipped with an atomizing nozzle for application to plants/insects.
Lima bean plants (variety Sieva) were grown 2 plants to a pot and selected for treatment at the 1st true leaf stage. Test solutions were sprayed onto the foliage by an automated electrostatic plant sprayer equipped with an atomizing spray nozzle. The plants were dried in the sprayer fume hood and then removed from the sprayer. Each pot was placed into perforated plastic bags with a zip closure. About 10 to 11 armyworm larvae were placed into the bag and the bags zipped closed. […] Mortality and reduced feeding were assessed 4 days after treatment, compared to untreated control plants.

Ceratitis capitata = assay: Mediterranean fruitfly (Ceratitis capitata) microtiter plate insect diet test; details: 120 h, egg and larval mortality after 5 days, read-out: mortality in comparison with untreated controls
Experimental: B.4 Mediterranean Fruitfly (Ceratitis capitata)
For evaluating control of Mediterranean fruitfly (Ceratitis capitata) the test unit consisted of microtiter plates containing an insect diet and 50-80 C. capitata eggs.
as §1, §2

CON=Cc1nn(-c2ccc(Cl)c(Cl)c2)cc1CN1CCC(C#N)CC1 (mixture of isomers) [IA-1, 1-[[1-(3,4-dichlorophenyl)-3-[(E/Z)-methoxyiminomethyl]pyrazol-4-yl]methyl]piperidine-4-carbonitrile]
> 75%: mortality at 2500 ppm (Anthonomus grandis) | mortality at 2500 ppm (Myzus persicae) | mortality at 2500 ppm (Heliothis virescens) | mortality at 500 ppm (Dichromothrips corbetti) | mortality at 500 ppm (Plutella xylostella) | mortality at 500 ppm (Nephotettix virescens) | mortality at 500 ppm (Aphis craccivora) | mortality at 300 ppm (Spodoptera eridania) | mortality at 2500 ppm (Ceratitis capitata)

N#CC1CCN(Cc2cn(-c3ccc(Cl)c(Cl)c3)nc2C=NOCC(F)(F)F)CC1 (mixture of isomers) [IA-2, 1-[[1-(3,4-dichlorophenyl)-3-[(E/Z)-2,2,2-trifluoroethoxyiminomethyl]pyrazol-4-yl]methyl]piperidine-4-carbonitrile]
> 75%: mortality at 2500 ppm (Anthonomus grandis) | mortality at 2500 ppm (Heliothis virescens) | mortality at 500 ppm (Dichromothrips corbetti) | mortality at 500 ppm (Plutella xylostella) | mortality at 500 ppm (Nephotettix virescens) | mortality at 500 ppm (Aphis craccivora) | mortality at 300 ppm (Spodoptera eridania) | mortality at 2500 ppm (Ceratitis capitata)
